Measurements taken from ChEMBL document CHEMBL1201862, “PubChem BioAssay data set” (2004).
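Step 1: Grow cells in 96-well plates. Step 2: Expose to compound for 48 hours at 5 concentrations. Step 3: Interpolate endpoints linearly; if unreached, use highest concentration. At the GI50, growth is halved.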 Activity calls are given as the source filed them. Cut-off read from the data, not from the text of the source: active = GI50 up to about 1.1 µM and inactive = higher.

What was measured:
Test in all cases: NCI tumour cell line growth inhibition, 48 h
786-0 = test system: 786-0
A498 = test system: A498
A549 = test system: A549
ACHN = test system: ACHN
CAKI-1 = test system: CAKI-1
CCRF-CEM = test system: CCRF-CEM
COLO 205 = test system: COLO 205
DLD-1 = test system: DLD-1
DMS-273 = test system: DMS-273
EKVX = test system: EKVX
HCC 2998 = test system: HCC 2998
HCT-116 = test system: HCT-116
HCT-15 = test system: HCT-15
HL-60 = test system: HL-60
HOP-18 = test system: HOP-18
HOP-62 = test system: HOP-62
HOP-92 = test system: HOP-92
HT-29 = test system: HT-29
IGROV-1 = test system: IGROV-1
K562 = test system: K562
KM-20L2 = test system: KM-20L2
KM12 = test system: KM12
LOX IMVI = test system: LOX IMVI
LXFL 529 = test system: LXFL 529
M14 = test system: M14
M19-MEL = test system: M19-MEL
MOLT-4 = test system: MOLT-4
Malme-3M = test system: Malme-3M
NCI-H226 = test system: NCI-H226
NCI-H23 = test system: NCI-H23
NCI-H460 = test system: NCI-H460
OVCAR-3 = test system: OVCAR-3
OVCAR-4 = test system: OVCAR-4
OVCAR-5 = test system: OVCAR-5
OVCAR-8 = test system: OVCAR-8
RPMI-8226 = test system: RPMI-8226
RXF 393 = test system: RXF 393
SF-268 = test system: SF-268
SF-295 = test system: SF-295
SF-539 = test system: SF-539
SK-MEL-28 = test system: SK-MEL-28
SK-MEL-5 = test system: SK-MEL-5
SN12C = test system: SN12C
SNB-19 = test system: SNB-19
SNB-75 = test system: SNB-75
SNB-78 = test system: SNB-78
SR = test system: SR
SW-620 = test system: SW-620
TK-10 = test system: TK-10
UACC-257 = test system: UACC-257
UACC-62 = test system: UACC-62
UO-31 = test system: UO-31
SK-MEL-2 = test system: SK-MEL-2
SK-OV-3 = test system: SK-OV-3
U-251 = test system: U-251

In the case of `OC1CC(O)O[C@H](c2ccccc2)C1` (stereo partly drawn), the GI50 (786-0) is reported as > 100 µM (inactive), the GI50 (A498) is reported as > 100 µM (inactive) and the GI50 (A549) is reported as > 100 µM (inactive). The GI50 (ACHN) was > 100 µM (inactive), the GI50 (CAKI-1) was > 100 µM (inactive) and the GI50 (CCRF-CEM) was > 100 µM (inactive). The GI50 (COLO 205) was > 100 µM (inactive), the GI50 (DLD-1) was > 100 µM (inactive) and the GI50 (DMS-273) was > 100 µM (inactive). For the same compound, the GI50 (EKVX) was > 100 µM (inactive), the GI50 (HCC 2998) was > 100 µM (inactive) and the GI50 (HCT-116) was > 100 µM (inactive). The GI50 (HCT-15) was over 100 µM, the GI50 (HL-60) was > 100 µM (inactive) and the GI50 (HOP-18) was > 100 µM (inactive). For the same compound, the GI50 (HOP-62) was > 100 µM (inactive), the GI50 (HOP-92) was > 100 µM (inactive) and the GI50 (HT-29) was > 100 µM (inactive). The GI50 (IGROV-1) was > 100 µM (inactive), the GI50 (K562) was > 100 µM (inactive) and the GI50 (KM-20L2) was > 100 µM (inactive). For the same compound, the GI50 (KM12) was > 100 µM (inactive), the GI50 (LOX IMVI) was > 100 µM (inactive) and the GI50 (LXFL 529) was > 100 µM (inactive). For the same compound, the GI50 (M14) was > 100 µM (inactive), the GI50 (M19-MEL) was > 100 µM (inactive) and the GI50 (MOLT-4) was > 100 µM (inactive). The GI50 (Malme-3M) was > 100 µM (inactive), the GI50 (NCI-H226) was > 100 µM (inactive) and the GI50 (NCI-H23) was > 100 µM (inactive). For the same compound, the GI50 (NCI-H460) was > 100 µM (inactive), the GI50 (OVCAR-3) was > 100 µM (inactive) and the GI50 (OVCAR-4) was > 100 µM (inactive). For the same compound, the GI50 (OVCAR-5) was > 100 µM (inactive), the GI50 (OVCAR-8) was 85.3 µM (inactive) and the GI50 (RPMI-8226) was > 100 µM (inactive). The GI50 (RXF 393) was > 100 µM (inactive), the GI50 (SF-268) was > 100 µM (inactive) and the GI50 (SF-295) was > 100 µM (inactive). For the same compound, the GI50 (SF-539) was > 100 µM (inactive), the GI50 (SK-MEL-28) was > 100 µM (inactive) and the GI50 (SK-MEL-5) was > 100 µM (inactive). The GI50 (SN12C) was > 100 µM (inactive), the GI50 (SNB-19) was > 100 µM (inactive) and the GI50 (SNB-75) was > 100 µM (inactive). The GI50 (SNB-78) was > 100 µM (inactive), the GI50 (SR) was > 100 µM (inactive) and the GI50 (SW-620) was > 100 µM (inactive). The GI50 (TK-10) was > 100 µM (inactive), the GI50 (UACC-257) was > 100 µM (inactive) and the GI50 (UACC-62) was > 100 µM (inactive). The GI50 (UO-31) was > 100 µM (inactive).
In the case of `Cc1c2cc[n+](C)cc2c(C)c2c1[nH]c1ccc(Oc3ccccc3)cc12`, the GI50 (786-0) is reported as 0.504 µM (active), the GI50 (A549) is reported as 0.324 µM (active) and the GI50 (ACHN) is reported as 2.05 µM (inactive). The GI50 (CAKI-1) was 1.89 µM (inactive), the GI50 (CCRF-CEM) was 1.19 µM (inactive) and the GI50 (COLO 205) was 1.1 µM (active). The GI50 (DLD-1) was 0.906 µM (active), the GI50 (DMS-273) was 0.596 µM (active) and the GI50 (EKVX) was 3.61 µM (inactive). The GI50 (HCC 2998) was 2.61 µM (inactive), the GI50 (HCT-116) was 1.54 µM (inactive) and the GI50 (HCT-15) was 3.05 µM. The GI50 (HOP-62) was 0.578 µM (active), the GI50 (HOP-92) was 1.28 µM (inactive) and the GI50 (HT-29) was 0.764 µM (active). The GI50 (IGROV-1) was 2.23 µM (inactive), the GI50 (K562) was 0.383 µM (active) and the GI50 (KM-20L2) was 1.14 µM (inactive). For the same compound, the GI50 (KM12) was 0.59 µM (active), the GI50 (LOX IMVI) was 2.09 µM (inactive) and the GI50 (LXFL 529) was 0.282 µM (active). For the same compound, the GI50 (M14) was 4.48 µM (inactive), the GI50 (MOLT-4) was 2.21 µM (inactive) and the GI50 (Malme-3M) was 1.76 µM (inactive). For the same compound, the GI50 (NCI-H226) was 0.492 µM (active), the GI50 (NCI-H23) was 0.515 µM (active) and the GI50 (OVCAR-3) was 1.6 µM (inactive). The GI50 (OVCAR-4) was 1.4 µM (inactive), the GI50 (OVCAR-5) was 3.31 µM (inactive) and the GI50 (OVCAR-8) was 0.553 µM (active). For the same compound, the GI50 (RPMI-8226) was 1.62 µM (inactive), the GI50 (SF-268) was 0.738 µM (active) and the GI50 (SF-295) was 0.311 µM (active). The GI50 (SF-539) was 1.88 µM (inactive), the GI50 (SK-MEL-28) was 3.28 µM (inactive) and the GI50 (SK-MEL-2) was 1.1 µM (active). The GI50 (SK-MEL-5) was 0.794 µM (active), the GI50 (SK-OV-3) was 1.39 µM (inactive) and the GI50 (SN12C) was 0.381 µM (active). The GI50 (SNB-19) was 0.67 µM (active), the GI50 (SNB-75) was 0.44 µM (active) and the GI50 (SW-620) was 0.843 µM (active). For the same compound, the GI50 (U-251) was 0.308 µM (active), the GI50 (UACC-257) was 1.18 µM (inactive) and the GI50 (UACC-62) was 1.51 µM (inactive). The GI50 (UO-31) was 7.29 µM (inactive).
